Measurements from patent EP0352609A1 (BIORESEARCH S.p.A., priority 1988, dated 1990).

Assays:
[1] = tested on: antigen SRBC (red sheep corpuscles); assay: Delayed hypersensitivity against cell antigen (DTH); assay type: in vivo, Mice B6 D2 F1; settings: 1 gamma i.p. on day of immunisation
Source text: The following experimental tests were used: • 1. Primary antibody response against thymus-dependent antigen, evaluated as the number of plaque-forming splenic cells (PFC) Mice B6 D2 F1, antigen SRBC (red sheep corpuscles) Jerne N.K and Nordin A.A., Plaque formation in ager by single antibody-producing cells Science, 140, 405, 1963. Table A • 2. Delayed hypersensitivity against cell antigen (DTH) Mice B6 D2 F1, antigen SRBC (red sheep corpuscles) Lagrange P.H., Mackaness G.B and Miller T.E., potentiation of T-cell-mediated immunity by selective suppression of antibody formation with cyclophosphamide. J. Exp. Med., 139, 1529, 1974. Table B • 3. Macrophage cytotoxic activity against target tumour induced by Corynebacterium Parvum Mice C57 BL/6; tumour L1210 pretagged with ⁵¹Cr; attack:target ratio 80:1; tumouricide activity evaluated as release of tagging compound and expressed as % of specific cytotoxicity. Herscowitr H.B. et al., Eds., Manual of macrophage methodology, M. Dekker 1981. Table C • 4. Splenic NK (natural cytotoxic cell) activity potentiated with polynucleotide (Poly I:C) Mice C57 BL/6; tumour YAC-1; evaluation as in test 3. Herbeman R.B. Ed., "Natural cell-mediated immunity against tumors". Academic Press, 1980. Table D […]

[2] = tested on: plaque-forming splenic cells (PFC); assay: Primary antibody response against thymus-dependent antigen (PFC, Jerne plaque assay); assay type: in vivo, Mice B6 D2 F1; settings: 25 gamma i.p. 6 days before immunisation
Source text: The following experimental tests were used: • 1. Primary antibody response against thymus-dependent antigen, evaluated as the number of plaque-forming splenic cells (PFC) Mice B6 D2 F1, antigen SRBC (red sheep corpuscles) Jerne N.K and Nordin A.A., Plaque formation in ager by single antibody-producing cells Science, 140, 405, 1963. Table A • 2. Delayed hypersensitivity against cell antigen (DTH) Mice B6 D2 F1, antigen SRBC (red sheep corpuscles) Lagrange P.H., Mackaness G.B and Miller T.E., potentiation of T-cell-mediated immunity by selective suppression of antibody formation with cyclophosphamide. J. Exp. Med., 139, 1529, 1974. Table B • 3. Macrophage cytotoxic activity against target tumour induced by Corynebacterium Parvum Mice C57 BL/6; tumour L1210 pretagged with ⁵¹Cr; attack:target ratio 80:1; tumouricide activity evaluated as release of tagging compound and expressed as % of specific cytotoxicity. Herscowitr H.B. et al., Eds., Manual of macrophage methodology, M. Dekker 1981. Table C • 4. Splenic NK (natural cytotoxic cell) activity potentiated with polynucleotide (Poly I:C) Mice C57 BL/6; tumour YAC-1; evaluation as in test 3. Herbeman R.B. Ed., "Natural cell-mediated immunity against tumors". Academic Press, 1980. Table D
The treatment was carried out during the inductive stage of the response.

Substance	DTH response (Table B, continuation; column head not given) [1]	% increase in PFC/spleen vs. control [2] [%]
Muramyl dipeptide	50	
Tuftsin		65
